From US20090264433A1, “Compounds, Compositions and Methods Comprising Triazine Derivatives” (Institute for OneWorld Health, priority 2008, published 2009)
Where a name gives a salt, the structure may show the parent alone.

Molecular target: T1, CFTR channel in human colonic T84 cells (Homo sapiens, UniProt P13569)
T1 construct: results in the phosphorylation and opening of CFTR anion channels; host or cells: human colonic T84 cells
Experiment: T84 assay (FLIPR membrane potential dye, forskolin/IBMX-stimulated CFTR)
Type: cell-based
Conditions: average of at least 2 runs unless annotated n = 1
Summary of the method: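 T84 cells (25,000/well, grown overnight) were washed in HBSS with 10 mM Hepes, then loaded with FLIPR Red membrane potential dye for 45 min with or without compound. CFTR was stimulated with 10 μM forskolin plus 100 μM IBMX after a 10 s baseline. Depolarization was tracked as a fluorescence increase, read every second for 150 s.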

T1 sequence (P13569 whole entry): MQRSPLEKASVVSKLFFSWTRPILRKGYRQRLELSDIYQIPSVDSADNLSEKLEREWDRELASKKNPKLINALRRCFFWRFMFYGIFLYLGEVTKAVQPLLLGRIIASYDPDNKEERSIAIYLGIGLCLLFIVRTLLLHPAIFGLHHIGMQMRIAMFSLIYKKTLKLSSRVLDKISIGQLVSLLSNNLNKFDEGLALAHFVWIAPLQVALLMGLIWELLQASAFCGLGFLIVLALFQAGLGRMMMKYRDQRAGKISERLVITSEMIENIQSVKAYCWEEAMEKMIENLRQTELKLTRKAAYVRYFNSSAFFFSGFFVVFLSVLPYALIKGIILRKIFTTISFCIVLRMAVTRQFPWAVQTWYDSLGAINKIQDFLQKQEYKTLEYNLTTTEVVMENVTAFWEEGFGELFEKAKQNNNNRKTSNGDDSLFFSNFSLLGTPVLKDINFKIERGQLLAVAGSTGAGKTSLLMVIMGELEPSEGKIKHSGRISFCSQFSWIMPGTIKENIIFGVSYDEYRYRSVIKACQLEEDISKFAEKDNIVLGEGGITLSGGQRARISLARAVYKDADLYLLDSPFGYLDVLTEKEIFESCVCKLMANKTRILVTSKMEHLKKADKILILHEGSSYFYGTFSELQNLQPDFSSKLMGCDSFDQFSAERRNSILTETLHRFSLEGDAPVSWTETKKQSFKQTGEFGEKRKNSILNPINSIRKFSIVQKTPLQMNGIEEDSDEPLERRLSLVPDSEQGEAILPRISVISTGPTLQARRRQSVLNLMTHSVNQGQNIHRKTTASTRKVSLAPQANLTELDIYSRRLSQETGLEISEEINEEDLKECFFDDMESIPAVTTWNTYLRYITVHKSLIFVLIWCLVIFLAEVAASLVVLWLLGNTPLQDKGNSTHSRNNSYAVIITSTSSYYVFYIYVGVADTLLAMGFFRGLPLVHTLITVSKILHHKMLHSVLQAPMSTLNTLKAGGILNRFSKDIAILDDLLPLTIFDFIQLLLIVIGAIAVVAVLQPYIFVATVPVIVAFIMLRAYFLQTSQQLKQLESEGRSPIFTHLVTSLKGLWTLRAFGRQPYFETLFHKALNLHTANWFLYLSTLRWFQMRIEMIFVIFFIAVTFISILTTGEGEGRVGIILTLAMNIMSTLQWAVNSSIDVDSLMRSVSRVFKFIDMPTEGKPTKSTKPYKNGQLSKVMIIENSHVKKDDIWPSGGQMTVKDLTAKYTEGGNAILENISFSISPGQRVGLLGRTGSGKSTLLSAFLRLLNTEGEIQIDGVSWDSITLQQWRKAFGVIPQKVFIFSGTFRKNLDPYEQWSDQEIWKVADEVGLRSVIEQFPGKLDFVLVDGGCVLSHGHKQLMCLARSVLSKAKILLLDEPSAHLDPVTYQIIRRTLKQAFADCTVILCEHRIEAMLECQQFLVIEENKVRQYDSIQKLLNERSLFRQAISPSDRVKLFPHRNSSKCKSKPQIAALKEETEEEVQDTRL

| Compound | IC50 [µM] |
| --- | --- |
| CC(Oc1ncc(-c2cc(Br)c(O)c(Br)c2)nn1)c1cccc(Cl)c1 (stereo not shown) [Compound 12, 2,6-dibromo-4-(3-(1-(3-chlorophenyl)ethoxy)-1,2,4-triazin-6-yl)phenol] | 0.84 |
| Oc1c(Br)cc(-c2cnc(OCc3cccc(Cl)c3Cl)nn2)cc1Br [Compound 23, 2,6-dibromo-4-(3-(2,3-dichlorobenzyloxy)-1,2,4-triazin-6-yl)phenol] | 2.7 |
| Cc1cc(Br)c(OCc2ncc(-c3cc(Br)c(O)c(Br)c3)nn2)c2c1CCC2 [Compound 46, 2,6-dibromo-4-(3-((5-bromo-7-methyl-2,3-dihydro-1H-inden-4-yloxy)methyl)-1,2,4-triazin-6-yl)phenol] | 14.3 |
| Cc1ccc(C)c(OCc2ncc(-c3cc(Br)c(O)c(Br)c3)nn2)c1 [Compound 52, 2,6-dibromo-4-(3-((2,5-dimethylphenoxy)methyl)-1,2,4-triazin-6-yl)phenol] | 19.8 |
| CN(C)c1cccc(COc2ncc(-c3cc(Br)c(O)c(Br)c3)nn2)c1 [Compound 17, 2,6-dibromo-4-(3-(3-(dimethylamino)benzyloxy)-1,2,4-triazin-6-yl)phenol] | 1.17 |
| Oc1c(Br)cc(-c2cnc(OCc3ccc(-c4ccccc4)cc3)nn2)cc1Br [Compound 14, 4-(3-(biphenyl-4-ylmethoxy)-1,2,4-triazin-6-yl)-2,6-dibromophenol] | 0.89 |
| Oc1c(Br)cc(-c2cnc(OCc3cccc(Br)c3)nn2)cc1Br [Compound 25, 2,6-dibromo-4-(3-(3-bromobenzyloxy)-1,2,4-triazin-6-yl)phenol] | 19.8 |
| Oc1c(Br)cc(-c2cnc(OCc3ccc(OC(F)(F)F)cc3)nn2)cc1Br [Compound 28, 2,6-dibromo-4-(3-(4-(trifluoromethoxy)benzyloxy)-1,2,4-triazin-6-yl)phenol] | 15.5 |
| Oc1c(Br)cc(-c2cnc(OCCc3ccccc3)nn2)cc1Br [Compound 96, 2,6-dibromo-4-(3-phenethoxy-1,2,4-triazin-6-yl)phenol] | 0.47 |
| Oc1c(Br)cc(-c2cnc(COc3ccc4c(c3)CCC4)nn2)cc1Br [Compound 48, 2,6-dibromo-4-(3-((2,3-dihydro-1H-inden-5-yloxy)methyl)-1,2,4-triazin-6-yl)phenol] | 14.8 |
| COc1ccc(Cl)cc1COc1ncc(-c2cc(Br)c(O)c(Br)c2)nn1 [Compound 5, 2,6-dibromo-4-(3-(5-chloro-2-methoxybenzyloxy)-1,2,4-triazin-6-yl)phenol] | 0.7 |
| Cc1cc(Cl)ccc1OCc1ncc(-c2cc(Cl)c(O)c(Cl)c2)nn1 [Compound 40, 2,6-dichloro-4-(3-((4-chloro-2-methylphenoxy)methyl)-1,2,4-triazin-6-yl)phenol] | 10.5 |
| Oc1c(Br)cc(-c2cnc(OCc3cc(Cl)cc(Cl)c3)nn2)cc1Br [Compound 26, 2,6-dibromo-4-(3-(3,5-dichlorobenzyloxy)-1,2,4-triazin-6-yl)phenol] | 0.38 |
| Oc1c(Br)cc(-c2cnc(OCCc3ccc(Br)cc3)nn2)cc1Br [Compound 2, 2,6-dibromo-4-(3-(4-bromophenethoxy)-1,2,4-triazin-6-yl)phenol] | 0.32 |
| Oc1c(Br)cc(-c2cnc(COc3ccc(C4SCCS4)cc3)nn2)cc1Br [Compound 51, 4-(3-((4-(1,3-dithiolan-2-yl)phenoxy)methyl)-1,2,4-triazin-6-yl)-2,6-dibromophenol] | 18.8 |
| Cc1ccc(OCc2ncc(-c3cc(Br)c(O)c(Br)c3)nn2)c2c1CCC2 [Compound 45, 2,6-dibromo-4-(3-((7-methyl-2,3-dihydro-1H-inden-4-yloxy)methyl)-1,2,4-triazin-6-yl)phenol] | 14.1 |
| Cc1cc(Cl)ccc1COc1ncc(-c2cc(Br)c(O)c(Br)c2)nn1 [Compound 29, 2,6-dibromo-4-(3-(4-chloro-2-methylbenzyloxy)-1,2,4-triazin-6-yl)phenol] | 1.35 |

Results, then the compound that gave them:

| IC50 [µM] | Compound |
| --- | --- |
| 3.79 | CN(Cc1ccc(COc2ncc(-c3cc(Cl)c(O)c(Cl)c3)nn2)cc1)Cc1ccc(-c2ccncc2)cc1 [Compound 187, 2,6-dichloro-4-(3-(4-((methyl(4-(pyridin-4-yl)benzyl)amino)methyl)benzyl-oxy)-1,2,4-triazin-6-yl)phenol] |
| 3.4 | CN(C)c1cccc(COc2ncc(-c3cc(Cl)c(O)c(Cl)c3)nn2)c1 [Compound 119, 2,6-dichloro-4-(3-(3-(dimethylamino)benzyloxy)-1,2,4-triazin-6-yl)phenol] |
| 14.4 | CN(Cc1ccc(COc2ncc(-c3cc(Cl)c(O)c(Cl)c3)nn2)cc1)C(c1ccccc1)c1ccccc1 [Compound 171, 4-(3-(4-((benzhydryl(methyl)amino)methyl)benzyloxy)-1,2,4-triazin-6-yl)-2,6-dichlorophenol] |
| 2.33 | Oc1c(Cl)cc(-c2cnc(OCCc3ccc(F)cc3)nn2)cc1Cl [Compound 179, 2,6-dichloro-4-(3-(4-fluorophenethoxy)-1,2,4-triazin-6-yl)phenol] |
| 20.1 | Cc1ccc(C(C)C)cc1OCc1ncc(-c2cc(Br)c(O)c(Br)c2)nn1 [Compound 53, 2,6-dibromo-4-(3-((5-isopropyl-2-methylphenoxy)methyl)-1,2,4-triazin-6-yl)phenol] |
| 4.47 | O=C(c1ccco1)N1CCN(Cc2ccc(COc3ncc(-c4cc(Cl)c(O)c(Cl)c4)nn3)cc2)CC1 [Compound 217, (4-(4-((6-(3,5-dichloro-4-hydroxyphenyl)-1,2,4-triazin-3-yloxy)methyl)benzyl)piperazin-1-yl)(furan-2-yl)methanone] |
| 28.6 | O=C(O)c1ccccc1N1CCN(Cc2ccc(COc3ncc(-c4cc(Cl)c(O)c(Cl)c4)nn3)cc2)CC1 [Compound 144, 2-(4-(4-((6-(3,5-dichloro-4-hydroxyphenyl)-1,2,4-triazin-3-yloxy)methyl)benzyl)piperazin-1-yl)benzic acid] |
| 28.8 | CC1(C)Cc2cccc(OCc3ncc(-c4cc(Br)c(O)c(Br)c4)nn3)c2O1 [Compound 128, 2,6-dibromo-4-(3-((2,2-dimethyl-2,3-dihydrobenzofuran-7-yloxy)methyl)-1,2,4-triazin-6-yl)phenol] |
| 0.17 | Oc1c(Br)cc(-c2cnc(OCCc3ccc(Cl)cc3)nn2)cc1Br [Compound 90, 2,6-dibromo-4-(3-(4-chlorophenethoxy)-1,2,4-triazin-6-yl)phenol] |
| 0.44 | Oc1c(Br)cc(-c2cnc(OCc3cc(Br)cs3)nn2)cc1Br [Compound 107, 2,6-dibromo-4-(3-((4-bromothiophen-2-yl)methoxy)-1,2,4-triazin-6-yl)phenol] |
| 2.13 | CCN(Cc1ccccc1)Cc1ccc(COc2ncc(-c3cc(Cl)c(O)c(Cl)c3)nn2)cc1 [Compound 192, 4-(3-(4-((benzyl(ethyl)amino)methyl)benzyloxy)-1,2,4-triazin-6-yl)-2,6-dichlorophenol] |
| 2.27 | Oc1c(Cl)cc(-c2cnc(OCc3ccc(CNC(CN4CCOCC4)c4ccccc4)cc3)nn2)cc1Cl (stereo not shown) [Compound 157, 2,6-dichloro-4-(3-(4-((2-morpholino-1-phenylethylamino)methyl)benzyloxy)-1,2,4-triazin-6-yl)phenol] |
| 14.8 | O=[N+]([O-])c1ccccc1SCc1ncc(-c2cc(Br)c(O)c(Br)c2)nn1 [Compound 131, 2,6-dibromo-4-(3-((2-nitrophenylthio)methyl)-1,2,4-triazin-6-yl)phenol] |
| 2.96 | Oc1c(Cl)cc(-c2cnc(OCc3ccc(CN4Cc5ccccc5C4)cc3)nn2)cc1Cl [Compound 162, 2,6-dichloro-4-(3-(4-(isoindolin-2-ylmethyl)benzyloxy)-1,2,4-triazin-6-yl)phenol] |
| 15.1 | Oc1c(Cl)cc(-c2cnc(OCc3ccc(CN4CCC(C(O)(c5ccccc5)c5ccccc5)CC4)cc3)nn2)cc1Cl [Compound 174, 2,6-dichloro-4-(3-(4-((4-(hydroxydiphenylmethyl)piperidin-1-yl)methyl)benzyloxy)-1,2,4-triazin-6-yl)phenol, formate salt] |
| 0.17 | Oc1c(Cl)cc(-c2cnc(OCCc3ccc(Cl)cc3)nn2)cc1Cl [Compound 112, 2,6-dichloro-4-(3-(4-chlorophenethoxy)-1,2,4-triazin-6-yl)phenol] |
| 28.9 | Oc1c(Br)cc(-c2cnc(Cc3cccc4ccccc34)nn2)cc1Br [Compound 130, 2,6-dibromo-4-(3-(naphthalen-1-ylmethyl)-1,2,4-triazin-6-yl)phenol] |
| 3.23 | Oc1c(Br)cc(-c2cnc(OCc3cnc(Br)s3)nn2)cc1Br [Compound 118, 2,6-dibromo-4-(3-((2-bromothiazol-5-yl)methoxy)-1,2,4-triazin-6-yl)phenol] |
| 2.22 | CN(Cc1ccc(COc2ncc(-c3cc(Cl)c(O)c(Cl)c3)nn2)cc1)Cc1cccc(-c2ccncc2)c1 [Compound 177, 2,6-dichloro-4-(3-(4-((methyl(3-(pyridin-4-yl)benzyl)amino)methyl)benzyl-oxy)-1,2,4-triazin-6-yl)phenol] |
| 2.01 | Oc1c(Cl)cc(-c2cnc(OCc3ccc(CN4CCN(c5ccc(Cl)cc5Cl)CC4)cc3)nn2)cc1Cl [Compound 150, 2,6-dichloro-4-(3-(4-((4-(2,4-dichlorophenyl)piperazin-1-yl)methyl)benzyloxy)-1,2,4-triazin-6-yl)phenol] |
| 9.15 | CN(Cc1ccc(COc2ncc(-c3cc(Cl)c(O)c(Cl)c3)nn2)cc1)Cc1cccc2ccccc12 [Compound 181, 2,6-dichloro-4-(3-(4-((methyl(naphthalen-1-ylmethyl)amino)methyl)benzyl-oxy)-1,2,4-triazin-6-yl)phenol] |
| 23.7 | Oc1c(Cl)cc(-c2cnc(NCc3ccc(Cl)c(Cl)c3)nn2)cc1Cl [Compound 133, 2,6-dichloro-4-(3-(3,4-dichlorobenzylamino)-1,2,4-triazin-6-yl)phenol, formate salt] |
| 24.8 | Oc1c(Br)cc(-c2cnc(-c3cccc(Oc4ccccc4)c3)nn2)cc1Br [Compound 129, 2,6-dibromo-4-(3-(3-phenoxyphenyl)-1,2,4-triazin-6-yl)phenol] |
